Laboratory results reported in patent publication US9796706B2, “Inhibitors of Jun N-terminal kinase” (IMAGO PHARMACEUTICALS, INC., priority 2009, dated 2017).

Key:
Assay type in all cases: biochemical
Conditions in all cases: procedures of Example 14 (TR-FRET)
[1] = molecular target: JNK3 (Homo sapiens (Human), UniProt P53779); test: JNK3 TR-FRET kinase assay (Example 14)
Outline: (§1)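 Two TR-FRET formats were used for each JNK isoform. In the direct one, preactivated aJNK phosphorylated EPIW-1 at about 1 mM final ATP (RT, 15 min). Both were EDTA-quenched and read by HTRF.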

[2] = molecular target: JNK1 (Homo sapiens (Human), UniProt P45983); test: JNK1 TR-FRET kinase assay (Example 14)
Chain of JNK1 (P45983 other isoform, or with tags, fused parts or gaps isoform P45983-2, species assumed): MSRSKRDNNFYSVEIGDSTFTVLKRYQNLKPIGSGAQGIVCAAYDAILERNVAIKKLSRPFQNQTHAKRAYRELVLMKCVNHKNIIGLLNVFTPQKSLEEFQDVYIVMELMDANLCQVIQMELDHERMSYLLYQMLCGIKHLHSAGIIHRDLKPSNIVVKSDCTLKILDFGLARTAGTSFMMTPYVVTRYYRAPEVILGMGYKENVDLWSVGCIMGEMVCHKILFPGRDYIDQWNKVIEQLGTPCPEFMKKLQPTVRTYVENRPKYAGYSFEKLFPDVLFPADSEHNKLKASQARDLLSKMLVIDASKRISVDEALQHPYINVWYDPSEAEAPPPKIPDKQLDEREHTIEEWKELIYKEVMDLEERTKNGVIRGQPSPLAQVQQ
Outline: as §1

[3] = molecular target: JNK2 (Homo sapiens (Human), UniProt P45984); test: JNK2 TR-FRET kinase assay (Example 14)
Chain of JNK2 (P45984 whole entry, species assumed): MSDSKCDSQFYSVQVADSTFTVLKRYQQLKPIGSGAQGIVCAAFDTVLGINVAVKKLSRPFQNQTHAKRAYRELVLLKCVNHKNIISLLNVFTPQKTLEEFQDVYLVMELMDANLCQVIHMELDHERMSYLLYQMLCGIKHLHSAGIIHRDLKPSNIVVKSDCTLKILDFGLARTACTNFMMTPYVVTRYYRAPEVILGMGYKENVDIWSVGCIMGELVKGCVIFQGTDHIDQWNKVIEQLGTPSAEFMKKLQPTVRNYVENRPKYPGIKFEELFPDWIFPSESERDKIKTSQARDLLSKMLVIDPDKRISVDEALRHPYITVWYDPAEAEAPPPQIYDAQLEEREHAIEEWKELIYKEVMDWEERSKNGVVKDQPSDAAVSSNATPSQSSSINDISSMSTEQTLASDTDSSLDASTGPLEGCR
Outline: as §1

Chain of JNK3 (P53779 whole entry, species assumed, canonical isoform): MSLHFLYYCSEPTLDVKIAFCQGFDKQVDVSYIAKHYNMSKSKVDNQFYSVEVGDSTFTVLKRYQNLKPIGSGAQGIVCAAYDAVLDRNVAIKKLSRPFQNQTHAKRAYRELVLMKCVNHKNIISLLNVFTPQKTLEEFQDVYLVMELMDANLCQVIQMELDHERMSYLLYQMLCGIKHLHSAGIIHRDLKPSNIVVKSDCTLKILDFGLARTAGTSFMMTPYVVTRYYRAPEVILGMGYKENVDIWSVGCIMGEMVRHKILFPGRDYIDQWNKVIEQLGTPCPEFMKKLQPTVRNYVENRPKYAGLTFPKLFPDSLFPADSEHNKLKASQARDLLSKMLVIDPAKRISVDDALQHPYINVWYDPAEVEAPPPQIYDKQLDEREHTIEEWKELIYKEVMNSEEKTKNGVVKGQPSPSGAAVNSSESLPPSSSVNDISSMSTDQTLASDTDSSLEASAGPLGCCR

IC50 [1] [nM] | IC50 [2] [nM] | IC50 [3] [nM] | SMILES
100 to 10000 | < 100 | 100 to 10000 | Cc1cn2c(CC(=O)Nc3scc(Br)c3-c3ncn[nH]3)csc2n1 [N-(4-bromo-3-(1H-1,2,4-triazol-5-yl)thiophen-2-yl)-2-(6-methylimidazo[2,1-b]thiazol-3-yl)acetamide]
< 100 | < 100 | < 100 | O=C(CN1C(=O)CCc2ccc(Cl)cc21)Nc1scc(Br)c1-c1ncn[nH]1 [N-(4-bromo-3-(1H-1,2,4-triazol-5-yl)thiophen-2-yl)-2-(7-chloro-2-oxo-3,4-dihydroquinolin-1(2H)-yl)acetamide]
< 100 | < 100 | < 100 | N#Cc1ccc2ccc(=O)n(CC(=O)Nc3scc(Br)c3-c3ncn[nH]3)c2c1 [N-(4-bromo-3-(1H-1,2,4-triazol-5-yl)thiophen-2-yl)-2-(7-cyano-2-oxoquinolin-1(2H)-yl)acetamide]
< 100 | < 100 | < 100 | O=C(Cn1c(=O)ccc2cc(C(F)(F)F)c(F)cc21)Nc1scc(Br)c1-c1ncn[nH]1 [N-(4-bromo-3-(1H-1,2,4-triazol-5-yl)thiophen-2-yl)-2-(7-fluoro-2-oxo-6-(trifluoromethyl)quinolin-1(2H)-yl)acetamide]
< 100 | < 100 | < 100 | O=C(Cn1c(=O)ccc2ccc(F)cc21)Nc1scc(Br)c1-c1ncn[nH]1 [N-(4-bromo-3-(1H-1,2,4-triazol-5-yl)thiophen-2-yl)-2-(7-fluoro-2-oxoquinolin-1(2H)-yl)acetamide]
< 100 | < 100 | 100 to 10000 | O=C(Cc1cc(F)cc2ncccc12)Nc1scc(Br)c1-c1ncn[nH]1 [N-(4-bromo-3-(1H-1,2,4-triazol-5-yl)thiophen-2-yl)-2-(7-fluoroquinolin-5-yl)acetamide]
< 100 | < 100 | < 100 | O=C(Cc1ccc(F)c2cnccc12)Nc1scc(Br)c1-c1ncn[nH]1 [N-(4-bromo-3-(1H-1,2,4-triazol-5-yl)thiophen-2-yl)-2-(8-fluoroisoquinolin-5-yl)acetamide]
< 100 | < 100 | 100 to 10000 | O=C(Cc1ccc(F)c2ncccc12)Nc1scc(Br)c1-c1ncn[nH]1 [N-(4-bromo-3-(1H-1,2,4-triazol-5-yl)thiophen-2-yl)-2-(8-fluoroquinolin-5-yl)acetamide]
100 to 10000 | < 100 | 100 to 10000 | O=C(Cc1cccc2nccn12)Nc1scc(Br)c1-c1ncn[nH]1 [N-(4-bromo-3-(1H-1,2,4-triazol-5-yl)thiophen-2-yl)-2-(imidazo[1,2-a]pyridin-5-yl)acetamide]
< 100 | < 100 | < 100 | O=C(Cc1cccc2cnccc12)Nc1scc(Br)c1-c1ncn[nH]1 [N-(4-bromo-3-(1H-1,2,4-triazol-5-yl)thiophen-2-yl)-2-(isoquinolin-5-yl)acetamide]
< 100 | < 100 | 100 to 10000 | O=C(Cc1cccc2ccncc12)Nc1scc(Br)c1-c1ncn[nH]1 [N-(4-bromo-3-(1H-1,2,4-triazol-5-yl)thiophen-2-yl)-2-(isoquinolin-8-yl)acetamide]
< 100 | < 100 | < 100 | O=C(Cc1cccc2ncccc12)Nc1scc(Br)c1-c1ncn[nH]1 [N-(4-bromo-3-(1H-1,2,4-triazol-5-yl)thiophen-2-yl)-2-(quinolin-5-yl)acetamide]
< 100 | < 100 | 100 to 10000 | O=C(Cn1c(=O)ccc2cc(C(F)(F)F)ccc21)Nc1scc(Br)c1-n1nccn1 [N-(4-bromo-3-(2H-1,2,3-triazol-2-yl)thiophen-2-yl)-2-(2-oxo-6-(trifluoromethyl)quinolin-1(2H)-yl)acetamide]
100 to 10000 | < 100 | 100 to 10000 | O=C(CN1C(=O)C(F)(F)c2ccccc21)Nc1scc(Br)c1-c1nnc[nH]1 [N-(4-bromo-3-(4H-1,2,4-triazol-3-yl)thiophen-2-yl)-2-(3,3-difluoro-2-oxoindolin-1-yl)acetamide]

Further lines, the molecule ahead of its results:

SMILES | IC50 [1] [nM] | IC50 [2] [nM] | IC50 [3] [nM]
O=C(Cn1c(=O)ccc2cc(OC(F)(F)F)ccc21)Nc1scc(Br)c1-c1ncn[nH]1 [N-(4-bromo-3-(1H-1,2,4-triazol-5-yl)thiophen-2-yl)-2-(2-oxo-6-(trifluoromethoxy)quinolin-1(2H)-yl)acetamide] | < 100 | < 100 | < 100
O=C(Cn1c(=O)ccc2nc(C(F)(F)F)ccc21)Nc1scc(Br)c1-c1ncn[nH]1 [N-(4-bromo-3-(1H-1,2,4-triazol-5-yl)thiophen-2-yl)-2-(2-oxo-6-(trifluoromethyl)-1,5-naphthyridin-1(2H)-yl)acetamide] | < 100 | < 100 | < 100
O=C(CN1C(=O)CCc2cc(C(F)(F)F)ccc21)Nc1scc(Br)c1-c1ncn[nH]1 [N-(4-bromo-3-(1H-1,2,4-triazol-5-yl)thiophen-2-yl)-2-(2-oxo-6-(trifluoromethyl)-3,4-dihydroquinolin-1(2H)-yl)acetamide] | < 100 | < 100 | < 100
O=C(Cn1c(=O)ccc2cc(C(F)(F)F)ccc21)Nc1scc(Br)c1-c1ncn[nH]1 [N-(4-bromo-3-(1H-1,2,4-triazol-5-yl)thiophen-2-yl)-2-(2-oxo-6-(trifluoromethyl)quinolin-1(2H)-yl)acetamide] | < 100 | < 100 | < 100
O=C(Cn1c(=O)ccc2ccc(OC(F)(F)F)cc21)Nc1scc(Br)c1-c1ncn[nH]1 [N-(4-bromo-3-(1H-1,2,4-triazol-5-yl)thiophen-2-yl)-2-(2-oxo-7-(trifluoromethoxy)quinolin-1(2H)-yl)acetamide] | < 100 | < 100 | < 100
O=C(Cn1c(=O)ccc2cnc(C(F)(F)F)cc21)Nc1scc(Br)c1-c1ncn[nH]1 [N-(4-bromo-3-(1H-1,2,4-triazol-5-yl)thiophen-2-yl)-2-(2-oxo-7-(trifluoromethyl)-1,6-naphthyridin-1(2H)-yl)acetamide] | < 100 | < 100 | < 100
O=C(Cn1c(=O)ccc2ccc(C(F)(F)F)cc21)Nc1scc(Br)c1-c1ncn[nH]1 [N-(4-bromo-3-(1H-1,2,4-triazol-5-yl)thiophen-2-yl)-2-(2-oxo-7-(trifluoromethyl)quinolin-1(2H)-yl)acetamide] | < 100 | < 100 | < 100
O=C(Cn1c(=O)ccc2c(F)cccc21)Nc1scc(Br)c1-c1ncn[nH]1 [N-(4-bromo-3-(1H-1,2,4-triazol-5-yl)thiophen-2-yl)-2-(5-fluoro-2-oxoquinolin-1(2H)-yl)acetamide] | < 100 | < 100 | < 100
O=C(Cn1c(=O)ccn2nc(C(F)(F)F)cc12)Nc1scc(Br)c1-c1ncn[nH]1 [N-(4-bromo-3-(1H-1,2,4-triazol-5-yl)thiophen-2-yl)-2-(5-oxo-2-(trifluoromethyl)pyrazolo[1,5-a]pyrimidin-4(5H)-yl)acetamide] | < 100 | < 100 | < 100
O=C(Cn1c(=O)ccn2nccc12)Nc1scc(Br)c1-c1ncn[nH]1 [N-(4-bromo-3-(1H-1,2,4-triazol-5-yl)thiophen-2-yl)-2-(5-oxopyrazolo[1,5-a]pyrimidin-4(5H)-yl)acetamide] | < 100 | < 100 | < 100
O=C(Cn1c(=O)ccc2cc(F)c(F)cc21)Nc1scc(Br)c1-c1ncn[nH]1 [N-(4-bromo-3-(1H-1,2,4-triazol-5-yl)thiophen-2-yl)-2-(6,7-difluoro-2-oxoquinolin-1(2H)-yl)acetamide] | < 100 | < 100 | < 100
O=C(Cn1c(=O)ccc2cc(Cl)ccc21)Nc1scc(Br)c1-c1ncn[nH]1 [N-(4-bromo-3-(1H-1,2,4-triazol-5-yl)thiophen-2-yl)-2-(6-chloro-2-oxoquinolin-1(2H)-yl)acetamide] | < 100 | < 100 | < 100
N#Cc1ccc2c(ccc(=O)n2CC(=O)Nc2scc(Br)c2-c2ncn[nH]2)c1 [N-(4-bromo-3-(1H-1,2,4-triazol-5-yl)thiophen-2-yl)-2-(6-cyano-2-oxoquinolin-1(2H)-yl)acetamide] | < 100 | < 100 | < 100
C#Cc1ccc2c(ccc(=O)n2CC(=O)Nc2scc(Br)c2-c2ncn[nH]2)c1 [N-(4-bromo-3-(1H-1,2,4-triazol-5-yl)thiophen-2-yl)-2-(6-ethynyl-2-oxoquinolin-1(2H)-yl)acetamide] | < 100 | < 100 | < 100
O=C(CN1C(=O)CCc2cc(F)ccc21)Nc1scc(Br)c1-c1ncn[nH]1 [N-(4-bromo-3-(1H-1,2,4-triazol-5-yl)thiophen-2-yl)-2-(6-fluoro-2-oxo-3,4-dihydroquinolin-1(2H)-yl)acetamide] | < 100 | < 100 | < 100
O=C(Cn1c(=O)ccc2cc(F)ccc21)Nc1scc(Br)c1-c1ncn[nH]1 [N-(4-bromo-3-(1H-1,2,4-triazol-5-yl)thiophen-2-yl)-2-(6-fluoro-2-oxoquinolin-1(2H)-yl)acetamide] | < 100 | < 100 | < 100
O=C(Cc1c(F)ccc2ncccc12)Nc1scc(Br)c1-c1ncn[nH]1 [N-(4-bromo-3-(1H-1,2,4-triazol-5-yl)thiophen-2-yl)-2-(6-fluoroquinolin-5-yl)acetamide] | < 100 | < 100 | < 100
O=C(Cc1cc2ncccc2cc1F)Nc1scc(Br)c1-c1ncn[nH]1 [N-(4-bromo-3-(1H-1,2,4-triazol-5-yl)thiophen-2-yl)-2-(6-fluoroquinolin-7-yl)acetamide] | 100 to 10000 | < 100 | 100 to 10000
